Experimental data taken from the supplement of paper PMC10920090.

How the values were obtained:
[1] = system: MDA-MB-231; experiment: drug sensitivity score (DSS), cytotoxicity CellTox Green; higher = more cytotoxic; extreme values may be limits of the assay; conditions: 72 h
[2] = system: MDA-MB-231; experiment: drug sensitivity score (DSS), cell viability CellTiter-Glo; higher = more sensitive; extreme values may be limits of the assay; conditions: 72 h
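For drug sensitivity score (DSS), cytotoxicity CellTox Green in this document: DSS summarises each dose–response curve by combining IC50, EC50, maximal inhibition and efficacy across drug concentrations.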

Compound	drug sensitivity score ([1]; shRNA: shPPFIA1_1)	drug sensitivity score ([1]; shRNA: shScramble)	drug sensitivity score ([2]; shRNA: shPPFIA1_1)	drug sensitivity score ([2]; shRNA: shScramble)
COc1cc(N2CCC(N3CCN(C)CC3)CC2)ccc1Nc1ncc(Cl)c(Nc2ccccc2P(C)(C)=O)n1 [Brigatinib]	1.8 DSS	3.6 DSS	6.4 DSS	0.7 DSS
CCc1cc2c(cc1N1CCC(N3CCOCC3)CC1)C(C)(C)c1[nH]c3cc(C#N)ccc3c1C2=O [Alectinib]	0 DSS	0 DSS	0 DSS	0.4 DSS
CCOc1cc2ncc(C#N)c(Nc3ccc(OCc4ccccn4)c(Cl)c3)c2cc1NC(=O)/C=C/CN(C)C [Neratinib]	0.2 DSS	0 DSS	6.3 DSS	8.3 DSS
CN1CCN(c2nc(C3=C(c4c[nH]c5ccccc45)C(=O)NC3=O)c3ccccc3n2)CC1 [Sotrastaurin]	0.7 DSS	0 DSS	1 DSS	0 DSS
CNC(=O)c1ccccc1Nc1nc(Nc2ccc3c(c2OC)CCC[C@H](N2CCN(CCO)CC2)C3)ncc1Cl	8.9 DSS	0 DSS	4 DSS	6.1 DSS
Nc1nc(F)nc2c1ncn2[C@@H]1O[C@H](CO)[C@@H](O)[C@@H]1O [Fludarabine]	0 DSS	0 DSS	0.4 DSS	2.5 DSS
CC(C)Cn1cnc2c(N)nc3ccccc3c21 [Imiquimod]	0.9 DSS	0 DSS	0 DSS	2.7 DSS
NC(=O)Nc1cc(-c2cccc(F)c2)sc1C(=O)N[C@H]1CCCNC1 [AZD7762]	2.8 DSS	0.1 DSS	4.5 DSS	5.7 DSS
CC(C)C[C@@H](C(=O)N[C@H](C(=O)OC1CCCC1)c1ccccc1)[C@H](O)C(=O)NO [Tosedostat]	12.4 DSS	7.8 DSS	4.2 DSS	2 DSS
CC[C@H](NC(=O)[C@H](C)NC)C(=O)N1C[C@@H](O)C[C@H]1Cc1c(-c2[nH]c3cc(F)ccc3c2C[C@@H]2C[C@H](O)CN2C(=O)[C@H](CC)NC(=O)[C@H](C)NC)[nH]c2cc(F)ccc12 [Birinapant]	31.3 DSS	22.4 DSS	20.3 DSS	13.2 DSS
c1ccc(Cn2c(-c3ccc(OC[C@H](C4CCNCC4)n4c(-c5ccccc5)nc5ccccc54)cc3)nc3ccccc32)cc1 [deltarasin]	9.2 DSS	7.3 DSS	5.7 DSS	7.3 DSS
Cc1ccc(C(=O)N(CCCN)[C@@H](c2oc3cc(Cl)ccc3c(=O)c2Cc2ccccc2)C(C)C)cc1	9.8 DSS	8.7 DSS	0 DSS	6.3 DSS
CNC(=O)c1cc(COc2nnc(Nc3ccc(Cl)cc3)c3ccoc23)ccn1 [Telatinib]	0 DSS	0 DSS	0 DSS	0 DSS
CCS(=O)(=O)N1CCN(c2ccc(Nc3ncc(C(N)=O)c(NC4CC4)n3)cc2)CC1 [Cerdulatinib]	0 DSS	0 DSS	0 DSS	2.9 DSS
COc1ccc(-c2ccc3c(N4CCOC[C@@H]4C)nc(N4CCOC[C@@H]4C)nc3n2)cc1CO [AZD8055]	0 DSS	0 DSS	2.3 DSS	9.6 DSS
COc1ccc(CCc2nc3cc(-c4c(C)noc4C)ccc3n2C[C@H](C)N2CCOCC2)cc1Cl [SGC-CBP30]	0 DSS	0 DSS	0 DSS	2.4 DSS
Cn1nccc1Nc1nccc(-c2ccn([C@H](CO)c3ccc(Cl)c(F)c3)c(=O)c2)n1 [GDC-0994]	0 DSS	3 DSS	0 DSS	3.5 DSS
CO[C@@]12[C@H](COC(N)=O)C3=C(C(=O)C(C)=C(N)C3=O)N1C[C@@H]1N[C@@H]12 [Mitomycin C]	0 DSS	0 DSS	0 DSS	0 DSS
O=C(O)c1ccc(Nc2ncc3c(n2)-c2ccc(Cl)cc2C(c2c(F)cccc2F)=NC3)cc1 [MLN-8054]	0 DSS	0 DSS	0.1 DSS	2.2 DSS
COc1cc2nccc(Oc3ccc(NC(=O)C4(C(=O)Nc5ccc(F)cc5)CC4)cc3)c2cc1OC [Cabozantinib]	0 DSS	0 DSS	3.2 DSS	1.1 DSS
c1ccc([C@H]2CN3CCSC3=N2)cc1 [Levamisole]	0 DSS	0 DSS	0 DSS	0 DSS
Cc1ccc(F)c(NC(=O)Nc2ccc(-c3cccc4[nH]nc(N)c34)cc2)c1 [Linifanib]	0 DSS	0 DSS	0 DSS	0 DSS
COc1cc2c(N3CCN(C(=O)Nc4ccc(OC(C)C)cc4)CC3)ncnc2cc1OCCCN1CCCCC1 [Tandutinib]	0 DSS	0 DSS	9.9 DSS	6.5 DSS
Cc1c(N)nc([C@H](CC(N)=O)NC[C@H](N)C(N)=O)nc1C(=O)N[C@H](C(=O)N[C@H](C)[C@@H](O)[C@H](C)C(=O)N[C@H](C(=O)NCCc1nc(-c2nc(C(=O)NCCC[S+](C)C)cs2)cs1)[C@@H](C)O)[C@@H](OC1OC(CO)C(O)C(O)C1OC1OC(CO)C(O)C(OC(N)=O)C1O)c1cnc[nH]1 (stereo partly specified) [Bleomycin]	0.1 DSS	0 DSS	0 DSS	3.5 DSS
